Key:
Assay in all cases: Greenhouse postemergence weed control, visual rating (Example 1)
Parameters in all cases: scale not given here
Conditions in all cases: approx. 3 weeks after treatment
ABUTH = type: in vivo, Abutilon theophrasti, Medic.
Experimental: (§1) In this evaluation, plants are grown in standard greenhouse soil for 10-14 days until they are at the 2-to 4-leaf stage. Said plants are then sprayed with an aqueous solution of the test compounds which contains 0.25% of a non-ionic surfactant and 1% of a 28-0-0 liquid fertilizer. Each treatment is replicated 3 to 4 times. Approximately 3 weeks after treatment visual ratings are made using the rating scale shown below. The data are averaged and shown on Table I. [table] [table]

CHEAL = type: in vivo, Chenopodium album, L.
Experimental: as §1

SETVI = type: in vivo, Setaria viridis, (L) Beauv
Experimental: as §1

AMBEL = type: in vivo, Ambrosia artemisiifolia, L.
Experimental: as §1

CC(C)C1(C)N=C(c2ncccc2C(=O)O)NC1=O (racemic) [Imazapyr]
WEED CONTROL ABUTH (ABUTH; Rate 2.016 g/ha): 4.8
WEED CONTROL ABUTH (ABUTH; Rate 4.00 g/ha): 6.3
WEED CONTROL ABUTH (ABUTH; Rate 8.00 g/ha): 7.5
WEED CONTROL ABUTH (ABUTH; Rate 16.00 g/ha): 8.5
WEED CONTROL ABUTH (ABUTH; Rate 32.00 g/ha): 9.0
WEED CONTROL ABUTH (ABUTH; Rate 48.00 g/ha): 9.0
WEED CONTROL ABUTH (ABUTH; Rate 64.00 g/ha): 9.0
WEED CONTROL CHEAL (CHEAL; Rate 2.016 g/ha): 6.3
WEED CONTROL CHEAL (CHEAL; Rate 4.00 g/ha): 8.0
WEED CONTROL CHEAL (CHEAL; Rate 8.00 g/ha): 8.8
WEED CONTROL CHEAL (CHEAL; Rate 16.00 g/ha): 9.0
WEED CONTROL CHEAL (CHEAL; Rate 32.00 g/ha): 9.0
WEED CONTROL CHEAL (CHEAL; Rate 48.00 g/ha): 9.0
WEED CONTROL CHEAL (CHEAL; Rate 64.00 g/ha): 9.0
WEED CONTROL SETVI (SETVI; Rate 2.016 g/ha): 5.3
WEED CONTROL SETVI (SETVI; Rate 4.00 g/ha): 6.8
WEED CONTROL SETVI (SETVI; Rate 8.00 g/ha): 9.0
WEED CONTROL SETVI (SETVI; Rate 16.00 g/ha): 9.0
WEED CONTROL SETVI (SETVI; Rate 32.00 g/ha): 9.0
WEED CONTROL SETVI (SETVI; Rate 48.00 g/ha): 9.0
WEED CONTROL SETVI (SETVI; Rate 64.00 g/ha): 9.0
WEED CONTROL AMBEL (AMBEL; Rate 2.016 g/ha): 2.5
WEED CONTROL AMBEL (AMBEL; Rate 4.00 g/ha): 4.0
WEED CONTROL AMBEL (AMBEL; Rate 8.00 g/ha): 5.0
WEED CONTROL AMBEL (AMBEL; Rate 16.00 g/ha): 7.0
WEED CONTROL AMBEL (AMBEL; Rate 32.00 g/ha): 7.8
WEED CONTROL AMBEL (AMBEL; Rate 48.00 g/ha): 8.8
WEED CONTROL AMBEL (AMBEL; Rate 64.00 g/ha): 8.8

CCc1cnc(C2=NC(C)(C(C)C)C(=O)N2)c(C(=O)O)c1 (racemic) [Imazethapyr]
WEED CONTROL ABUTH (ABUTH; Rate 4.00 g/ha): 2.5
WEED CONTROL ABUTH (ABUTH; Rate 8.00 g/ha): 3.0
WEED CONTROL ABUTH (ABUTH; Rate 16.00 g/ha): 4.0
WEED CONTROL ABUTH (ABUTH; Rate 32.00 g/ha): 6.3
WEED CONTROL ABUTH (ABUTH; Rate 64.00 g/ha): 6.3
WEED CONTROL ABUTH (ABUTH; Rate 96.00 g/ha): 9.0
WEED CONTROL ABUTH (ABUTH; Rate 128.00 g/ha): 9.0
WEED CONTROL CHEAL (CHEAL; Rate 4.00 g/ha): 2.5
WEED CONTROL CHEAL (CHEAL; Rate 8.00 g/ha): 2.3
WEED CONTROL CHEAL (CHEAL; Rate 16.00 g/ha): 3.5
WEED CONTROL CHEAL (CHEAL; Rate 32.00 g/ha): 7.0
WEED CONTROL CHEAL (CHEAL; Rate 64.00 g/ha): 8.0
WEED CONTROL CHEAL (CHEAL; Rate 96.00 g/ha): 9.0
WEED CONTROL CHEAL (CHEAL; Rate 128.00 g/ha): 9.0
WEED CONTROL SETVI (SETVI; Rate 4.00 g/ha): 3.5
WEED CONTROL SETVI (SETVI; Rate 8.00 g/ha): 4.5
WEED CONTROL SETVI (SETVI; Rate 16.00 g/ha): 4.3
WEED CONTROL SETVI (SETVI; Rate 32.00 g/ha): 6.0
WEED CONTROL SETVI (SETVI; Rate 64.00 g/ha): 7.5
WEED CONTROL SETVI (SETVI; Rate 96.00 g/ha): 9.0
WEED CONTROL SETVI (SETVI; Rate 128.00 g/ha): 9.0
WEED CONTROL AMBEL (AMBEL; Rate 4.00 g/ha): 2.5
WEED CONTROL AMBEL (AMBEL; Rate 8.00 g/ha): 2.8
WEED CONTROL AMBEL (AMBEL; Rate 16.00 g/ha): 4.0
WEED CONTROL AMBEL (AMBEL; Rate 32.00 g/ha): 6.0
WEED CONTROL AMBEL (AMBEL; Rate 64.00 g/ha): 6.5
WEED CONTROL AMBEL (AMBEL; Rate 96.00 g/ha): 7.5
WEED CONTROL AMBEL (AMBEL; Rate 128.00 g/ha): 8.8

CC(C)[C@@]1(C)N=C(c2ncccc2C(=O)O)NC1=O [R-Imazapyr, R-imazapyr]
WEED CONTROL ABUTH (ABUTH; Rate 1.34 g/ha): 4.3
WEED CONTROL ABUTH (ABUTH; Rate 2.68 g/ha): 5.8
WEED CONTROL ABUTH (ABUTH; Rate 5.36 g/ha): 7.3
WEED CONTROL ABUTH (ABUTH; Rate 10.72 g/ha): 8.0
WEED CONTROL ABUTH (ABUTH; Rate 21.44 g/ha): 9.0
WEED CONTROL ABUTH (ABUTH; Rate 32.16 g/ha): 9.0
WEED CONTROL ABUTH (ABUTH; Rate 42.88 g/ha): 9.0
WEED CONTROL CHEAL (CHEAL; Rate 1.34 g/ha): 7.3
WEED CONTROL CHEAL (CHEAL; Rate 2.68 g/ha): 7.8
WEED CONTROL CHEAL (CHEAL; Rate 5.36 g/ha): 8.3
WEED CONTROL CHEAL (CHEAL; Rate 10.72 g/ha): 9.0
WEED CONTROL CHEAL (CHEAL; Rate 21.44 g/ha): 9.0
WEED CONTROL CHEAL (CHEAL; Rate 32.16 g/ha): 9.0
WEED CONTROL CHEAL (CHEAL; Rate 42.88 g/ha): 9.0
WEED CONTROL SETVI (SETVI; Rate 1.34 g/ha): 6.0
WEED CONTROL SETVI (SETVI; Rate 2.68 g/ha): 7.5
WEED CONTROL SETVI (SETVI; Rate 5.36 g/ha): 8.0
WEED CONTROL SETVI (SETVI; Rate 10.72 g/ha): 9.0
WEED CONTROL SETVI (SETVI; Rate 21.44 g/ha): 9.0
WEED CONTROL SETVI (SETVI; Rate 32.16 g/ha): 9.0
WEED CONTROL SETVI (SETVI; Rate 42.88 g/ha): 9.0
WEED CONTROL AMBEL (AMBEL; Rate 1.34 g/ha): 1.5
WEED CONTROL AMBEL (AMBEL; Rate 2.68 g/ha): 4.5
WEED CONTROL AMBEL (AMBEL; Rate 5.36 g/ha): 5.0
WEED CONTROL AMBEL (AMBEL; Rate 10.72 g/ha): 6.3
WEED CONTROL AMBEL (AMBEL; Rate 21.44 g/ha): 7.5
WEED CONTROL AMBEL (AMBEL; Rate 32.16 g/ha): 9.0
WEED CONTROL AMBEL (AMBEL; Rate 42.88 g/ha): 8.5

CCc1cnc(C2=N[C@](C)(C(C)C)C(=O)N2)c(C(=O)O)c1 [R-Imazethapyr, R-imazethapyr]
WEED CONTROL ABUTH (ABUTH; Rate 2.68 g/ha): 4.8
WEED CONTROL ABUTH (ABUTH; Rate 5.36 g/ha): 4.8
WEED CONTROL ABUTH (ABUTH; Rate 10.72 g/ha): 4.8
WEED CONTROL ABUTH (ABUTH; Rate 21.44 g/ha): 6.8
WEED CONTROL ABUTH (ABUTH; Rate 42.88 g/ha): 7.0
WEED CONTROL ABUTH (ABUTH; Rate 64.30 g/ha): 9.0
WEED CONTROL ABUTH (ABUTH; Rate 85.76 g/ha): 9.0
WEED CONTROL CHEAL (CHEAL; Rate 2.68 g/ha): 2.3
WEED CONTROL CHEAL (CHEAL; Rate 5.36 g/ha): 3.8
WEED CONTROL CHEAL (CHEAL; Rate 10.72 g/ha): 4.0
WEED CONTROL CHEAL (CHEAL; Rate 21.44 g/ha): 6.8
WEED CONTROL CHEAL (CHEAL; Rate 42.88 g/ha): 7.0
WEED CONTROL CHEAL (CHEAL; Rate 64.30 g/ha): 9.0
WEED CONTROL CHEAL (CHEAL; Rate 85.76 g/ha): 9.0
WEED CONTROL SETVI (SETVI; Rate 2.68 g/ha): 4.8
WEED CONTROL SETVI (SETVI; Rate 5.36 g/ha): 4.5
WEED CONTROL SETVI (SETVI; Rate 10.72 g/ha): 5.5
WEED CONTROL SETVI (SETVI; Rate 21.44 g/ha): 6.5
WEED CONTROL SETVI (SETVI; Rate 42.88 g/ha): 7.5
WEED CONTROL SETVI (SETVI; Rate 64.30 g/ha): 9.0
WEED CONTROL SETVI (SETVI; Rate 85.76 g/ha): 9.0
WEED CONTROL AMBEL (AMBEL; Rate 2.68 g/ha): 3.8
WEED CONTROL AMBEL (AMBEL; Rate 5.36 g/ha): 3.5
WEED CONTROL AMBEL (AMBEL; Rate 10.72 g/ha): 3.0
WEED CONTROL AMBEL (AMBEL; Rate 21.44 g/ha): 4.8
WEED CONTROL AMBEL (AMBEL; Rate 42.88 g/ha): 6.5
WEED CONTROL AMBEL (AMBEL; Rate 64.30 g/ha): 8.8
WEED CONTROL AMBEL (AMBEL; Rate 85.76 g/ha): 9.0

From patent publication EP0913089A1, “Synergistic herbicidal composition containing R-imazethapyr and R-imazapyr and method for controlling weeds therewith” (American Cyanamid Company, priority 1997, dated 1999)
